Tests used:
[1] = system: Vero; assay: Cytotoxicity against african green monkey Vero cells assessed as cell rounding at 1 uM; format: cell-based; settings: chlorocebus sabaeus
[2] = system: Human alphaherpesvirus 1; assay: Antiviral activity against HSV1 infected in african green monkey Vero cells assessed as plaque formation at 1 uM after 4 days by neutral red assay relative to control; format: functional
[3] = Cytotoxicity against african green monkey Vero cells assessed as cell viability at 1 uM by trypan blue exclusion assay; format: cell-based; settings: chlorocebus sabaeus, read-out: Activity
[4] = system: Measles morbillivirus; assay: Antiviral activity against measles virus infected in african green monkey Vero cells assessed as cell rounding at 1 uM; format: functional
[5] = system: Measles morbillivirus; assay: Antiviral activity against measles virus infected in african green monkey Vero cells assessed as inhibition of virus-induced cytopathic effect at 1 uM; format: functional; design: scale not given: the % may be the effect or the level left
[6] = system: Measles morbillivirus; assay: Antiviral activity against measles virus infected in african green monkey Vero cells assessed as plaque formation at 1 uM after 5 days by neutral red assay relative to control; format: functional

SMILES	Activity [1]	Activity [2]	viability at 1 µM [3]	Activity [4]	Activity [5]	Activity [6]
COc1cc([C@@H]2c3cc4c(c(O)c3C[C@H]3COC(=O)[C@@H]32)OCO4)cc(OC)c1O	5%	31.1%	91.9%	>95%	25%	47.5%
COc1cc([C@@H]2c3cc4c(c(O)c3C[C@H]3COC(=O)[C@@H]32)OCO4)cc(OC)c1OC [BETA-PELTATIN A]	5%	21.7%	85.4%	50%	100%	15.1%
COc1cc([C@@H]2c3cc4c(cc3[C@H](O)[C@H]3COC(=O)[C@@H]23)OCO4)cc(OC)c1OC [AXL-1717]	15%	84.4%	89.9%	5%	100%	41.5%
COc1cc([C@@H]2c3cc4c(cc3[C@H](O)[C@H]3COC(=O)[C@H]23)OCO4)cc(OC)c1OC [PODOFILOX]	80%	11.7%	91.7%	>95%	25%	0.9%
COc1cc([C@@H]2c3cc4c(cc3C[C@H]3COC(=O)[C@@H]32)OCO4)cc(OC)c1OC [DESOXYPODOPHYLLOTOXIN]	30%	16.2%	90.7%	50%	70%	19.8%
